Experimental data from ChEMBL document CHEMBL6087449, “Identification of an Isoxazole Derivative as an Antitubercular Compound for Targeting the FadD Enzymes of Mycobacterium tuberculosis” (J Med Chem, 2025).
Active and inactive are the calls of the source. The calls are words filed in the database; no cut-off is given here.

Test system: Mycobacterium tuberculosis
Experiment: Antitubercular activity against Mycobacterium tuberculosis H37Rv assessed as inhibition of bacterial growth incubated for 5 days by Alamar Blue based assay
Format: functional, organism-based
Conditions: time 5.0 day

Compound: Oc1ccc(-c2onc(C(F)(F)F)c2-c2ccc(Cl)cc2)c(O)c1
- Activity: inactive
